Measurements published in patent publication US20070015822A1, “Methods for selectively treating COX-2 mediated disorders by administering gamma-tocopherol” (priority 2005, published 2007).
Like-named read-outs stand apart in the source and are kept apart here.

Experiments:
Assay type in all cases: in vivo, dog
COX-1 = target: T1, COX-1 (Canis lupus familiaris, UniProt Q8HZR1); assay: COX-1 IC50 determination in dogs; settings: six dogs; γ-tocopherol tested as tocopherol composition comprising 66.6% gamma-tocopherol
T1 construct: from tissue
T1 sequence (Q8HZR1 28-603): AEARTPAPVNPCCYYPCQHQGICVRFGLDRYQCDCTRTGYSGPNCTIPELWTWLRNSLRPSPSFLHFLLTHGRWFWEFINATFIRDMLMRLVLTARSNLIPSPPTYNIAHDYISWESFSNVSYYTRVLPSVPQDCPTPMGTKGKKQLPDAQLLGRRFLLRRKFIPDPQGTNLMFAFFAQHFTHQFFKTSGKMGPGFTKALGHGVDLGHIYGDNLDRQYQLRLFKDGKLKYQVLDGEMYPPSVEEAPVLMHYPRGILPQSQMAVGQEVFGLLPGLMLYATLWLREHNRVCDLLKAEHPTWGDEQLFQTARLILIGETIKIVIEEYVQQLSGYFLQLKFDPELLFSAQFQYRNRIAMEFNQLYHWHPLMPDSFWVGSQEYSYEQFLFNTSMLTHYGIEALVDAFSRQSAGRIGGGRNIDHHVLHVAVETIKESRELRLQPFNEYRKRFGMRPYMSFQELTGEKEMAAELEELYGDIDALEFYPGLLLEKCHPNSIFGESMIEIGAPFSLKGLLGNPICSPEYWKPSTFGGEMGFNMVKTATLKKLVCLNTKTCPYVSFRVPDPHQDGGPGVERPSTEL

urate-induced lameness = assay: crystal urate-induced lameness model in dogs; settings: 10 or 100 mg/kg body weight, 66.4% w/w or 90.9% w/w gamma-tocopherol
Method: A study was conducted to evaluate the effectiveness of the inventive formulations using the crystal urate-induced lameness model dogs. Formulations according to the invention and comprising 66.4% w/w or 90.9% w/w gamma-tocopherol and at 10 and 100 mg/kg body weight were administered to the dogs.

COX-2 = target: T2, COX-2 (Canis lupus familiaris, UniProt Q8SPQ9); assay: COX-2 IC50 determination in dogs; set-up: from tissue; settings: for COX-1:COX-2: ratio of COX-1 IC50 to COX-2 IC50 (selectivity)
T2 sequence (Q8SPQ9 18-604): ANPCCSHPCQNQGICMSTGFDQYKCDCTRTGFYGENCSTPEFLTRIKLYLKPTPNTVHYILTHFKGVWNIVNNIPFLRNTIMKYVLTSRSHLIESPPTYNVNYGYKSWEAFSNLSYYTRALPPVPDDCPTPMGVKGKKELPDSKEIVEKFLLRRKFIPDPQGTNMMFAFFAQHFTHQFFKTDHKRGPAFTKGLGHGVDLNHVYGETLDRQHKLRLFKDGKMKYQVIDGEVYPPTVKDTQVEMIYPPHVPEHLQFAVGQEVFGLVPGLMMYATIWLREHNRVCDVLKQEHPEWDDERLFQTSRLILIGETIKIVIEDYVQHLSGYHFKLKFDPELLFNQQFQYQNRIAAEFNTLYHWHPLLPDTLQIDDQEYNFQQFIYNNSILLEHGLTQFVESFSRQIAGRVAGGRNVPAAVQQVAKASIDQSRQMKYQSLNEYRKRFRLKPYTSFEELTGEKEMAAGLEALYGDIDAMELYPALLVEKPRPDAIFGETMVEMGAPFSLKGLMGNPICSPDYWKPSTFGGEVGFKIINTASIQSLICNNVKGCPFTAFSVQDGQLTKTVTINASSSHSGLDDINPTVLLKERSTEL

[1] = six dogs, γ-tocopherol tested as tocopherol composition comprising 66.6% gamma-tocopherol, read-out: COX-2 IC50

Row | Compound | COX-1 IC50 (COX-1) | degree of force upon the urate-treated joints tolerated (urate-induced lameness; FIGS. 3-4) | degree of lameness (urate-induced) (urate-induced lameness; after 8 hours, FIGS. 1-2) | IC50 (COX-2; [1]) [µM] | IC50 (COX-1) [µM] | IC50 (COX-2) [µM] | COX-1:COX-2 (COX-2)
1 | Cc1c(O)cc2c(c1C)O[C@](C)(CCC[C@H](C)CCC[C@H](C)CCCC(C)C)CC2 [γ-Tocopherol, 3,4-dihydro-2,7,8-trimethyl-2-(4,8,12-trimethyltridecyl)-2H-1-benzyopyran-6-ol] | No activity | increased | Improvement in the degree of lameness | 27.8 | – | – | –
2 | CC(C(=O)O)c1ccc2c(c1)[nH]c1ccc(Cl)cc12 (stereo not shown) [Carprofen] | – | – | – | – | 68.6 | 10 | 7
3 | CC1(C)OC(=O)C(OCC2CC2)=C1c1ccc(S(C)(=O)=O)cc1 [Firocoxib] | – | – | – | 0.31 | 119 | – | 384
